Data published in publication PMC5874678, “Bryonolic Acid Blocks Cancer Cell Clonogenicity and Invasiveness through the Inhibition of Fatty Acid: Cholesteryl Ester Formation” (Biomedicines, 2018).

Tests used:
[1] = target: T1, ACAT in MCF-7 cells (Homo sapiens, UniProt P35610); experiment: ACAT activity in intact MCF-7 cells; type: cell-based; conditions: MCF-7, 24 h, [14C]cholesterol; for IC50: read-out: IC50, inhibition of ACAT activity in intact cells
T1 construct: endogenous in cells; host or cells: MCF-7, MDA-MB-231, U-87
T1 sequence (P35610 1-550): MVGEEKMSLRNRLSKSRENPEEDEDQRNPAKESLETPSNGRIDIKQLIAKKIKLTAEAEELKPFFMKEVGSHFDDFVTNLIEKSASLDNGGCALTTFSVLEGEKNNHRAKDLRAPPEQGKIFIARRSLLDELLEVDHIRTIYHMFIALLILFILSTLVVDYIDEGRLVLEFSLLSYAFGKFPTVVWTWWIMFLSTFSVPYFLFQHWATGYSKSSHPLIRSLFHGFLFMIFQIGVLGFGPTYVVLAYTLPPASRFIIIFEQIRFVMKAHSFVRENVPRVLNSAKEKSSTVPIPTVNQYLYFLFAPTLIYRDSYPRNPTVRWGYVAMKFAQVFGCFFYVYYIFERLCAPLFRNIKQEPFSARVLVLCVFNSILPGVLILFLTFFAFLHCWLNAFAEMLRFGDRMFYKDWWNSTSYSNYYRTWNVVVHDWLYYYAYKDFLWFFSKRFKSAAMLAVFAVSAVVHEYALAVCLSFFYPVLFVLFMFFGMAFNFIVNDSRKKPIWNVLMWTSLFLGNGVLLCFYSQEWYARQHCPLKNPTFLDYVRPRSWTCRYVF
Description: (§1) MCF-7, MB-231, U-87 and 3T3-EA cells were plated on six-well plates (40,000 cells/well). ACAT activity in intact cells was measured as described previously. Cells were preincubated for 15 min. with solvent vehicle or increasing concentrations of BrA ranging from 1 to 200 μM in complete medium. [^14C]Cholesterol (0.2 μCi/well) was added and the cells were incubated for 24 h. At the end of the incubation, intracellular and secreted lipids in the supernatant were extracted and then separated by TLC as described previously. Free and esterified cholesterol were identified using purified ^14C commercial standards and the radioactivity of each individual lipid was quantified using a phosphor screen (Storm; GE Healthcare, Chicago, IL, USA). ACAT activity is expressed as the percentage of the ACAT activity measured in the absence of inhibitors (cells treated with solvent vehicle).
(§2) Cells were plated on 6-well plates. […]. [^14C]cholesterol (0.2 μCi/well) was added and cells were incubated for 24 h. At the end of the incubation, intracellular lipids were extracted as described in [30] and then separated by TLC as described previously. Free and esterified cholesterol were identified using purified [^14C] standards and the radioactivity associated with each individual lipid was quantified using a Phosphoscreen (Storm; Molecular Dynamics). ACAT activity is expressed as the percentage of the ACAT activity measured in the absence of inhibitors (cells treated with solvent vehicle).

[2] = target: T2, ERα (Homo sapiens, UniProt P03372); experiment: Oestrogen receptor competition binding assay, ERα; conditions: n.m. = no measurable inhibition of binding
T2 sequence (P03372 1-595): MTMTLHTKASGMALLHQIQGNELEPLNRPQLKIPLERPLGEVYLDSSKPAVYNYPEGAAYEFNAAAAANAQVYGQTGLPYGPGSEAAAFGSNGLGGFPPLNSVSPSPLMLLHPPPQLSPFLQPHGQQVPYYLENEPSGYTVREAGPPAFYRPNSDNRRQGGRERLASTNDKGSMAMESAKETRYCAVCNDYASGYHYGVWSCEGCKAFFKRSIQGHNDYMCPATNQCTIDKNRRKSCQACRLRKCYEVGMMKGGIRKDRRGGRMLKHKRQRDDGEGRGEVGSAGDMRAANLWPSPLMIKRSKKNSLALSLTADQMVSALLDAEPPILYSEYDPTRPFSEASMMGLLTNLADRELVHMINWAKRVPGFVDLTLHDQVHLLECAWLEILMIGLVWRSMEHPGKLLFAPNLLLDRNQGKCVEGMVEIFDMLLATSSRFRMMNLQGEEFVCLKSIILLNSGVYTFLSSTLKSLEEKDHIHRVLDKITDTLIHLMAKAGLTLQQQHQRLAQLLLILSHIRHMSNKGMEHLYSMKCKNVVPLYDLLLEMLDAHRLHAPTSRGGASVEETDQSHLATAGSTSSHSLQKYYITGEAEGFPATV
Description: (§3) Competition binding to ERα and ERβ was measured exactly as described previously.

[3] = target: T3, ACAT in MB-231 cells (Homo sapiens, UniProt P35610); experiment: ACAT activity in intact MB-231 cells; type: cell-based; conditions: MB-231, 24 h, [14C]cholesterol; for IC50: read-out: IC50, inhibition of ACAT activity in intact cells
T3 construct: endogenous in cells; host or cells: MCF-7, MDA-MB-231, U-87
T3 sequence (P35610 1-550): T1 sequence (P35610 1-550)
Description: as §1, §2

[4] = target: T4, ACAT in NIH-3T3-CCK2R-E151A cells (3T3-EA) (Mus musculus, UniProt Q61263); experiment: ACAT activity in intact 3T3-EA cells; type: cell-based; conditions: 24 h, [14C]cholesterol; for IC50: read-out: IC50, inhibition of ACAT activity in intact cells
T4 construct: endogenous in cells; host or cells: NIH-3T3-CCK2R-E151A (3T3-EA)
T4 sequence (Q61263 1-540): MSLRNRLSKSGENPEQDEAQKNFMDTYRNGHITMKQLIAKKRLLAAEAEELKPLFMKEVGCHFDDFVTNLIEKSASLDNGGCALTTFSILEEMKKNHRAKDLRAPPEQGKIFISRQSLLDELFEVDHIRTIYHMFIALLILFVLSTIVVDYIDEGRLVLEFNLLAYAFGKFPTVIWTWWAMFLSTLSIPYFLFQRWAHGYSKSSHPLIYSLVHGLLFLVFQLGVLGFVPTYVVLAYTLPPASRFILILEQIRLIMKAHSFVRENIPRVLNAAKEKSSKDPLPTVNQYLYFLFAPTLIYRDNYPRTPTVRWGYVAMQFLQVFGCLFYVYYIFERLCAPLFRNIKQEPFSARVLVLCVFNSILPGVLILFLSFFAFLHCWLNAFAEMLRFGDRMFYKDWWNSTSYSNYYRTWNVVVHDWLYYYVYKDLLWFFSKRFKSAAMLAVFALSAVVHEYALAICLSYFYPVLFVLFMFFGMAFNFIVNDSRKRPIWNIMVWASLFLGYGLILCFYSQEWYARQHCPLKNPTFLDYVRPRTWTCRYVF
Description: as §1, §2

[5] = target: T5, ACAT in U-87 cells (Homo sapiens, UniProt P35610); experiment: ACAT activity in intact U-87 cells; type: cell-based; conditions: U-87, 24 h, [14C]cholesterol; for IC50: read-out: IC50, inhibition of ACAT activity in intact cells
T5 construct: endogenous in cells; host or cells: MCF-7, MDA-MB-231, U-87
T5 sequence (P35610 1-550): T1 sequence (P35610 1-550)
Description: as §1, §2

[6] = target: T6, cholesterol-5,6-epoxide hydrolase (ChEH) (Rattus norvegicus, UniProt Q9JJ46+Q9Z2Z8); experiment: Cholesterol epoxide hydrolase (ChEH) inhibition assay; type: biochemical; conditions: 150 μg rat liver microsomal proteins, 10 and 20 μM [14C]α-CE, compounds 0.01 to 1000 μM
T6 construct: from tissue; host or cells: rat liver microsomes
T6 sequence (Q9JJ46 2-230 limits assumed): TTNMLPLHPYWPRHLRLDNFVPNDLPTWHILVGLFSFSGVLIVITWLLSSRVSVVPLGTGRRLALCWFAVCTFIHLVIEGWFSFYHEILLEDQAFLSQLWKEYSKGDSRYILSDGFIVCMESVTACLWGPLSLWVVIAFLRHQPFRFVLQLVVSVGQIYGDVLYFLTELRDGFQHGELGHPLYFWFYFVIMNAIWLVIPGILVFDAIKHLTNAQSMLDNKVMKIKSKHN
T6 sequence (Q9Z2Z8 1-471): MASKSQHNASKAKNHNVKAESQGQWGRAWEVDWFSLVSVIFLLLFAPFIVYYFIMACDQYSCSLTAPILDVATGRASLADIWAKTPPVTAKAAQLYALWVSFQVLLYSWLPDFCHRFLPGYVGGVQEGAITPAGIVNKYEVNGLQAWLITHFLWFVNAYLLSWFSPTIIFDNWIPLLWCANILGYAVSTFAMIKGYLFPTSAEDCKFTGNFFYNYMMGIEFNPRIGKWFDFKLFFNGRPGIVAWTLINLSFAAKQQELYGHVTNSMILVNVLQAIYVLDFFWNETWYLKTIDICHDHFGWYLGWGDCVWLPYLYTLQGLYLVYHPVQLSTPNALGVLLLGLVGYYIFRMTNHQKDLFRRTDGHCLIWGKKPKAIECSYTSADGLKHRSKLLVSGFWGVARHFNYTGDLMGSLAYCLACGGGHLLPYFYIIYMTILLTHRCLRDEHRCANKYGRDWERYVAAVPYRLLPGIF
Description: Inhibition of ChEH activity was measured as described previously on a whole-cell assay using MCF-7 cells [33]. […] Cells were treated for 24 h with 0.6 μM [^14C]α-CE.
The mixtures were incubated over a period of 0 to 30 min. The tubes were placed in ice cold distilled water to stop the reaction and the addition of 1.5 mL chloroform/methanol (2:1) and reaction buffer (500 mL) followed. After vortexing, the lower phase was aspirated and the residual aqueous phase was extracted with chloroform (1.5 mL). The organic extracts were combined and dried under a gentle stream of nitrogen, followed by suspension in ethanol (60 µL).
Samples were applied to TLC plates that had been heated previously for 1 h at 100 °C and were developed using ethyl acetate. The regions corresponding to authentic CE and cholestane-3β,5α,6β-triol standards were visualized by iodine vapour. Radioactive metabolites were visualized using a Storm apparatus (GE Healthcare) and quantified by densitometry with the software ImageQuant version 5.2 (GE Healthcare).

[7] = target: ERβ (Homo sapiens, UniProt Q92731); experiment: Oestrogen receptor competition binding assay, ERβ; conditions: n.m. = no measurable inhibition of binding
Description: as §3

[8] = test system: MCF-7, MB-231, U-87 and 3T3-EA cells; experiment: Clonogenic assay (colony formation); type: cell-based; conditions: Homo sapiens, MCF7, four tested cell lines, vs solvent vehicle, read-out: inhibition of cancer cell colony formation
Description: Following trypsinization of the cells, they were plated in tissue culture plates (60 mm) at a density of 500–1000 per plate. After adherence for 24 h, the drugs were added at the chosen final concentrations from freshly prepared stock solutions. The plates were washed twice with serum-free medium after 24 to 72 h incubation. Fresh medium was added and the plates were incubated at 37 °C until the colonies became visible. After incubation, the plates were washed with PBS and stained using Coomassie brilliant blue. The stained colonies were counted and are reported as the percentage of control cells (ethanol treated (0.01% (v/v)).

[9] = test system: MCF-7, MB-231, U-87 and 3T3-EA cells; experiment: Cell invasion assay (Matrigel-coated filters); type: cell-based
Description: Cells were added to six-well plates (40,000 cells/well) containing Dulbecco's Modified Eagle Medium (DMEM) and 10% FCS. Following incubation for 24 h, the cells were treated for a further 24 h in the presence of the test compounds, or else vehicle in DMEM and 2% Fetal Calf Serum (FCS). The cells were harvested and counted. Cells (20,000) were placed in serum-free DMEM on the surface of Nunc filters (8 mm diameter, […]; Nalgen Nunc International, Rochester, NY, USA). The filters were coated with growth factor-reduced Matrigel ([…] Matrigel; BD Biosciences, San Jose, CA, USA) in the presence of the test compounds or else vehicle. The base of the filter was filled with 10% FCS/DMEM. Following incubation for 48 h at 37 °C, cells which had invaded the Matrigel and attached themselves to the base of the filter were fixed, stained with Giemsa stain and counted microscopically.

ERβ, sequence (Q92731 whole entry, species assumed): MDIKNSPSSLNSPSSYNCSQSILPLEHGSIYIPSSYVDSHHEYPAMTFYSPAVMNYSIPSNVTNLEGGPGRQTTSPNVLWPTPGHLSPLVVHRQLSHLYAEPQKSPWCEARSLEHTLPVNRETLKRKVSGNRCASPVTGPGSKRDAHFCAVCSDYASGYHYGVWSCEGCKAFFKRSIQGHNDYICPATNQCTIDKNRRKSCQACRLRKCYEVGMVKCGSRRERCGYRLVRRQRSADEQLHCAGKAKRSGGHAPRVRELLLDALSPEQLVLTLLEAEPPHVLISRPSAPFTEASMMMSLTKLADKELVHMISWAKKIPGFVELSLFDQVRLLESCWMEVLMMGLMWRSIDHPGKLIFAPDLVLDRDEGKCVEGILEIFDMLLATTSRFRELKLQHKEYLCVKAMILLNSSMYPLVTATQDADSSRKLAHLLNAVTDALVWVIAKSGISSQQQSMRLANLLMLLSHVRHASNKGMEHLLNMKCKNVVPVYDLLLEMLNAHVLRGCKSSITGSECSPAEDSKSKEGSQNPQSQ

C=C(C)[C@@H]1CC[C@]2(C(=O)O)CC[C@]3(C)[C@H](CC[C@@H]4[C@@]5(C)CC[C@H](O)C(C)(C)[C@@H]5CC[C@]43C)[C@@H]12 [betulinic acid]
IC50 [1]: 53.7 ± 4.2 µM
IC50, competition with radiolabelled 17β-estradiol binding to ERα [2]: n.m.
IC50 [3]: 58.3 ± 8.1 µM
IC50 [4]: 60.2 ± 8 µM
IC50 [5]: 61.4 ± 9.4 µM
IC50, ChEH inhibition [6]: n.m.
IC50, competition with radiolabelled 17β-estradiol binding to ERβ [7]: n.m.

CC1(C)[C@@H](O)CC[C@]2(C)C3=C(CC[C@@H]12)[C@@]1(C)CC[C@@]2(C)CC[C@@](C)(C(=O)O)C[C@H]2[C@]1(C)CC3 [bryonolic acid, D-C friedoolean-8-en-3β-ol-29 oic acid]
IC50 [1]: 22.5 ± 3.7 µM
IC50, competition with radiolabelled 17β-estradiol binding to ERα [2]: n.m.
IC50 [3]: 29.5 ± 5.5 µM
inhibition at 25 µM [8]: > 50%
IC50 [4]: 19.4 ± 7.6 µM
IC50 [5]: 17.5 ± 4.8 µM
IC50, ChEH inhibition [6]: n.m.
IC50, ChEH inhibition ([6]; listed as BrA): does not inhibit ChEH
inhibition of cell invasiveness ([9]; 25 μM, 24 h pre-treatment, 48 h invasion, four cell lines): observable in the four cell lines
effect of added cholesteryl oleate on inhibition of cell invasiveness ([9]; cholesteryl oleate 4 µg/mL, MB-231 and U87 cells): blocked the inhibition of cell invasiveness triggered by BrA
IC50, competition with radiolabelled 17β-estradiol binding to ERβ [7]: n.m.

CCCCCCCCCC[Si](C)(C)CCC(=O)NC(Cc1ccc(C)cc1)c1ccccc1 (centres unmarked) [sah 58-035, 3-[decyldimethylsilyl]-N-[2-(4-methylphenyl)-1-phenylethyl]-propanamide]
IC50 [1]: 5.1 ± 0.5 µM
IC50 [3]: 9.1 ± 1.4 µM
IC50 [4]: 7.4 ± 1.8 µM
IC50 [5]: 9.2 ± 2.2 µM

C[C@H]1[C@H](C)CC[C@]2(C(=O)O)CC[C@]3(C)C(=CC[C@@H]4[C@@]5(C)CC[C@H](O)C(C)(C)[C@@H]5CC[C@]43C)[C@H]12 [ursolic acid]
IC50, inhibition of ACAT activity in intact cells [1]: n.m.
IC50, inhibition of ACAT activity in intact cells [3]: n.m.
IC50, inhibition of ACAT activity in intact cells [4]: n.m
IC50, inhibition of ACAT activity in intact cells [5]: n.m.
IC50, ChEH inhibition [6]: n.m.
IC50, competition with radiolabelled 17β-estradiol binding to ERβ [7]: n.m.

C[C@]12CC[C@@H]3c4ccc(O)cc4CC[C@H]3[C@@H]1CC[C@@H]2O [E2, 17β-estradiol]
IC50, ChEH inhibition [6]: n.m.
